Reference: patent US9551722B2, “Amyloid binding agents” (The Regents of the University of California, priority 2009, dated 2017)

Legend:
[1] = Solubility in aqueous media (observation); type: physicochemical
[2] = target: T1, interaction of the aggregated Aβ peptide with a monoclonal anti-Aβ IgG (Homo sapiens, UniProt P05067); assay: Semi-quantitative ELISA: inhibition of IgG-Aβ fibril interactions; type: binding; conditions: anti-Aβ IgG clone 6E10
T1 construct: Aggregated Aβ peptides were generated from synthetic Aβ(1-42) peptides
Protocol: The association of the synthesized compounds with aggregated Aβ peptides was tested using a semi-quantitative ELISA based assay developed by Yang and co-workers. See P. Inbar, J. Yang, Bioorg. Med. Chem. Lett. 2006, 16:1076-1079; P. Inbar, C. Q. Li, S. A. Takayama, M. R. Bautista, J. Yang, ChemBioChem 2006, 7:1563-1566; P. Inbar, M. R. Bautista, S. A. Takayama, J. Yang, Anal. Chem. 2008, 80:3502-3506. The assay is based on screening for molecules that inhibit the interaction of the aggregated Aβ peptide with a monoclonal anti-Aβ IgG raised against residues 1-17 of Aβ. Table 4 provides the concentrations of the compounds corresponding to 50% inhibition (IC50) of the IgG-Aβ interactions as well as the maximal percentage of the IgG's inhibited from binding to the fibrils. […] The maximum inhibition, a measure of the extent of surface coating of the aggregated peptide by the compounds, was determined to be between 40-98% (Table 4). See P. Inbar, J. Yang, Bioorg. Med. Chem. Lett. 2006, 16:1076-1079; P. Inbar, C. Q. Li, S. A. Takayama, M. R. Bautista, J. Yang, ChemBioChem 2006, 7:1563-1566; P. Inbar, M. R. Bautista, S. A. Takayama, J. Yang, Anal. Chem. 2008, 80:3502-3506. […] Specifically, while the maximum inhibition is between 81-98% for the phenyl compounds, it decreases to 58% for the longer naphthalene compound 11 and to 40% for the more conjugated stilbene 19.
Aggregated Aβ peptides were generated from synthetic Aβ(1-42) peptides by dissolving 30 μg of peptide in 90 μL of nanopure water (pH 5-6) and incubating at 37° C. for ≧72 h without agitation. Each well of a 96-well plate (well volume 0.4 mL; clear, flat bottom polypropylene) was coated for 3 h at 25° C. with 50 μL of 1.3 μM solution of Aβ peptides in phosphate-buffered saline (PBS, 10 mM NaH2PO4/Na2HPO4, 138 mM NaCl, 2.7 mM KCl, pH 7.4). After removal of the excess sample, 50 μL solutions of compounds in PBS buffer (various concentrations were obtained by diluting a stock solution with PBS buffer) were incubated in the wells for 12 h. […] The excess solutions were then removed and all wells were blocked for 30 min by adding 300 μL of a 1% (w/v) solution of bovine serum albumin in PBS buffer (BSA/PBS). On occasion, an additional blocking step was performed prior to incubation with solutions of small molecules. The blocking solution was discarded and the wells were washed once with 300 μL of PBS buffer. Wells were incubated for 1 h with 50 μL of a 1.1 nM solution (in 1% BSA/PBS, dilution 1:6000) of anti-Aβ IgG (clone 6E10, monoclonal, mouse), followed by removal of the solution. The wells were washed twice with 300 μL of PBS buffer and incubated for 60 min with 50 μL of the secondary IgG (anti-mouse IgG H+L, polyclonal, rabbit) conjugated with alkaline phosphatase (6.8 nM in 1% BSA/PBS, dilution 1:1000). The solution was discarded, and the wells were washed twice with 300 μL PBS buffer. Bound secondary IgGs were detected by the addition of 50 μL of a p-nitrophenyl phosphate solution (2.7 mM, in 100 mM diethanol amine/0.5 mM magnesium chloride, pH 9.8). Absorbance intensities were determined at 405 nm using a UV-vis spectroscopic plate reader (Sprectramax 190, Molecular Devices, Sunnyvale, Calif.). Each run was performed five times and averaged. Error bars represent standard deviations. Graphs were plotted and fitted with the sigmoid curve fitting.

[3] = target: T2, pre-aggregated Aβ(1-42) peptide (Homo sapiens, UniProt P05067); assay: Apparent binding constant (Kd) by double reciprocal fluorescence plot; conditions: compound 10, 5, 2.5, 1.25 μM; 5.0 μM pre-aggregated Aβ(1-42); PBS pH 7.4
T2 construct: preaggregated Aβ(1-42) peptides
Protocol: We also measured the apparent binding constants (Kd) of the compounds (in concentrations of 10, 5, 2.5 and 1.25 μM) to 5.0 μM pre-aggregated Aβ(1-42) peptide. The Kd can be measured from the double reciprocal of the fluorescent maximum and the concentration of the compound. See H. LeVine III, Protein Sci. 1993, 2:404-410. […] [22,] See LeVine, Id.; Lockhart, L. Ye, D. B. Judd, A. T. Merritt, P. N. Lowe, J. L. Morgenstern, G. Z. Hong, A. D. Gee, J. Brown, J. Biol. Chem. 2005, 280:7677-7684; M. Biancalana, K. Makabe, A. Koide, S. Koide, J. Mol. Biol. 2008, 383:205-213; M. Biancalana, K. Makabe, A. Koide, S. Koide, J. Mol. Biol. 2009, 385:1052-1063. The Kd corresponds to the −1/(x-intercept) of the linear regression.
Pre-aggregated Aβ(1-42) (5 μM final concentration) was mixed with various concentrations of compounds described herein (10, 5, 2.5, 1.25 μM) in PBS buffer (pH 7.4) and their fluorescence was measured. The negative inverse of the x-intercept of the linear regression, that was drawn between the double reciprocal of the fluorescence intensity maximum and concentration of the compound, represents the compound binding constant (Kd) to Aβ(1-42).
In order to quantify the dissociation constants (Kd's) for the binding of fluorescent compounds with aggregated β-amyloid peptides, we used the method described by LeVine (see H. LeVine III, Protein Sci. 1993, 2, 404-410). This method is similar to the method described by Benesi-Hildebran (see C. Yang, L. Liu, T. W. Mu, Q. X. Guo, Anal. Sci. 2000, 16, 537-539). Here, the fluorescence of the compound was measured with and without the addition of the aggregated peptides in solution. The relative fluorescence enhancement of the compound upon binding to aggregated β-amyloid peptides was determined by taking the difference between F (fluorescence after the addition of aggregated peptides) and F (fluorescence before the addition of aggregated peptides).
In order to estimate the binding constant (Kd) for the compound-Aβ complexes from the fluorescence studies, we made the following assumptions: • 1. All compounds are completely in solution and free of any significant competing binding process such as self-aggregation. • 2. The concentration of unbound compounds can be approximated as close to the total concentration of the compounds. • 3. The binding sites in the aggregated Aβ peptides are not completely occupied at the concentration of Aβ-binding compounds used for the fluorescence studies (i.e., the experiments are carried out under non-saturated binding conditions).
FIG. 2 and FIG. 6 provide double reciprocal plots of the measured fluorescence versus total concentration of compound [GO]. Assuming that [G] can be approximated as close to [GO] (assumption 2), we can obtain estimates for the Kd's of the compound-Aβ complexes from the x-intercept of the linear fits of the data for each compound.

T1 sequence (P05067 672-713 limits assumed): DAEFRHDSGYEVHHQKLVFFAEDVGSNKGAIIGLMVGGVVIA
T2 sequence (P05067 672-713 limits assumed): as above

## COCCOCCOCCOC(=O)/C(C#N)=C/c1ccc(/C=C/c2ccc(N(C)C)cc2)cc1 [Cmpd 19, (E)-2-(2-(2-methoxyethoxyl)ethoxy)ethyl-cyano-3-(4-(4(dimethylamino)styryl)phenyl)acrylate]
[1]
  Solubility in aqueous media: poor solubility in aqueous media
[2]; 50% inhibition of IgG-Aβ interactions
  IC50: 33.6 µM
[2]; maximal percentage of IgG inhibited from binding to the fibrils
  Maximum % inhibition (ELISA): 40%
[3]
  Kd: 1400 nM
